We go through 16 compounds from PubChem BioAssay AID328 (DTP/NCI, 2004).

Molecules are shown by their SMILES. Where “and” joins values, the source holds several entries; their conditions need not be identical. Identical values can stand only once. Inconclusive results and toxic doses are left out. Non-standard residues stand in square brackets, D forms with d. Residues, ends and D or L forms follow the SMILES beside them. ξ: configuration not given here. *: point of attachment. Nphe = O=C(O)CNCc1ccccc1; ξL = CC(C)CC(N)C(=O)O; Ms = CS(=O)(=O)*

In this assay the test system is BDF1 mice, P388 leukemia ip, median survival T/C. Briefly: NCI In Vivo Anticancer Drug Screen. Data for tumor model P388 Leukemia (intraperitoneal) in B6D2F1 (BDF1) mice. The settings on record: endpoint: median survival time, higher = longer survival. A digest of the protocol: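 Mice carrying the transplantable tumour receive compound or vehicle. Survival is followed in each arm, and the treated measure is divided by the vehicle measure.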

Setting [1] is: dose: 50.0 mg/kg/injection, schedule: Q01DX009 (ip), vehicle: saline with Tween-80.
The mark [2] stands for this setting: dose: 100.0 mg/kg/injection, schedule: Q01DX009 (ip), vehicle: saline with Tween-80.
Setting [3] is: dose: 200.0 mg/kg/injection, schedule: Q01DX009 (ip), vehicle: saline with Tween-80.
Where [4] appears, read: dose: 50.0 mg/kg/injection, schedule: Q01DX009 (ip), vehicle: other.
[5] abbreviates: dose: 200.0 mg/kg/injection, schedule: Q01DX009 (ip), vehicle: other.

With `Cn1cnccc1=O`, the T/C (dose: 50.0 mg/kg/injection, schedule: Q01DX009 (ip), vehicle: water) is 122 % of control; the T/C (dose: 100.0 mg/kg/injection, schedule: Q01DX009 (ip), vehicle: water) was 121 % of control; the T/C (dose: 100.0 mg/kg/injection, schedule: Q04DX003 (ip), vehicle: water) is 118 % of control; the T/C (dose: 200.0 mg/kg/injection, schedule: Q01DX009 (ip), vehicle: water) is 102 % of control; the T/C (dose: 200.0 mg/kg/injection, schedule: Q04DX003 (ip), vehicle: water) was 106 % of control; the T/C (dose: 400.0 mg/kg/injection, schedule: Q01DX009 (ip), vehicle: water) was 103 % of control. Moreover, under “dose: 400.0 mg/kg/injection, schedule: Q04DX003 (ip), vehicle: water”, the T/C was 115 % of control.

As for `COc1ccccc1/C=C(/C)[N+](=O)[O-]`, the T/C was 90 % of control (dose: 10.0 mg/kg/injection, schedule: Q01DX010 (ip), vehicle: steriod suspending solution); 110 % of control (dose: 14.0 mg/kg/injection, schedule: Q01DX010 (ip), vehicle: steriod suspending solution); 120 % of control (dose: 22.0 mg/kg/injection, schedule: Q01DX010 (ip), vehicle: steriod suspending solution); 175 % of control (dose: 33.0 mg/kg/injection, schedule: Q01DX010 (ip), vehicle: carboxymethylcellulose (CMC)); 120 % of control (dose: 33.0 mg/kg/injection, schedule: Q01DX010 (ip), vehicle: steriod suspending solution); 120 % of control (dose: 50.0 mg/kg/injection, schedule: Q01DX010 (ip), vehicle: steriod suspending solution). In addition, the T/C by setting is: (dose: 70.0 mg/kg/injection, schedule: Q01DX010 (ip), vehicle: steriod suspending solution) 110 % of control; (dose: 75.0 mg/kg/injection, schedule: Q01DX010 (ip), vehicle: carboxymethylcellulose (CMC)) 95 % of control.

For `CC/C(C)=N/Nc1nncn2c1cc1ccccc12`, the T/C under setting [1] is 94 % of control, the T/C under setting [2] is 100 % of control and the T/C under setting [3] is 97 % of control.

Turning to `CCC(CCC(C)C1CCC2C3CC=C4CC(OC5OC(CO)C(O)C(O)C5O)CCC4(C)C3CCC12C)C(C)C` (stereo unspecified), the T/C (dose: 100.0 mg/kg/injection, schedule: Q04DX003 (ip), vehicle: Klucel (hydroxypropylcellulose) (HPC)) was 95 % of control and the T/C (dose: 200.0 mg/kg/injection, schedule: Q04DX003 (ip), vehicle: Klucel (hydroxypropylcellulose) (HPC)) is 95 % of control.

`CC1(C)CC(=O)C=C(NCc2ccccc2)C1`: the T/C runs as follows: (dose: 37.5 mg/kg/injection, schedule: Q01DX009 (ip), vehicle: Klucel (hydroxypropylcellulose) (HPC)) 100 % of control; (dose: 75.0 mg/kg/injection, schedule: Q01DX009 (ip), vehicle: Klucel (hydroxypropylcellulose) (HPC)) 100 % of control; (dose: 150.0 mg/kg/injection, schedule: Q01DX009 (ip), vehicle: Klucel (hydroxypropylcellulose) (HPC)) 100 % of control.

For `O=C(CBr)c1cccnc1`, the T/C (dose: 6.25 mg/kg/injection, schedule: Q04DX003 (ip), vehicle: saline) was 104 % of control; the T/C (dose: 12.5 mg/kg/injection, schedule: Q04DX003 (ip), vehicle: saline) was 104 % of control; the T/C (dose: 25.0 mg/kg/injection, schedule: Q04DX003 (ip), vehicle: saline) was 95 % of control.

For the compound `C1=C\CCC2SC2CC/1` (stereo unspecified), the T/C (dose: 100.0 mg/kg/injection, schedule: Q04DX002 (ip), vehicle: saline) is 100 % of control; the T/C (dose: 200.0 mg/kg/injection, schedule: Q04DX002 (ip), vehicle: saline) was 97 % of control; the T/C (dose: 400.0 mg/kg/injection, schedule: Q04DX002 (ip), vehicle: saline) is 100 % of control.

As to `CC1OC(OC2CC(O)C3(CO)C4C(O)CC5(C)C(C6=CC(=O)OC6)CCC5(O)C4CCC3(O)C2)C(O)C(O)C1O` (stereo unspecified), the T/C is 90 % of control (dose: 1.5 mg/kg/injection, schedule: Q01DX010 (ip), vehicle: saline) and 90 % of control (dose: 3.0 mg/kg/injection, schedule: Q01DX010 (ip), vehicle: saline).

Regarding `CCC1CCN2CCc3c([nH]c4ccccc34)C(C(=O)OC)(c3cc4c(cc3OC)N(C)C3C(O)(C(=O)OC)C(OC(C)=O)C5(CC)CCCN6CCC43C65)CC2C1` (stereo unspecified), the T/C (dose: 0.06 mg/kg/injection, schedule: Q01DX009 (ip), vehicle: water) is 95 % of control; the T/C (dose: 0.12 mg/kg/injection, schedule: Q01DX009 (ip), vehicle: water) is 100 % of control; the T/C (dose: 0.25 mg/kg/injection, schedule: Q01DX009 (ip), vehicle: water) is 104 % of control; the T/C (dose: 0.5 mg/kg/injection, schedule: Q01DX009 (ip), vehicle: water) was 95 % of control; the T/C (dose: 1.0 mg/kg/injection, schedule: Q01DX009 (ip), vehicle: water) was 86 % of control and 104 % of control; the T/C (dose: 2.0 mg/kg/injection, schedule: Q01DX009 (ip), vehicle: water) was 90 % of control and 95 % of control. Moreover, the T/C (dose: 4.0 mg/kg/injection, schedule: Q01DX009 (ip), vehicle: water) was 90 % of control and the T/C (dose: 8.0 mg/kg/injection, schedule: Q01DX009 (ip), vehicle: water) is 95 % of control.

As for `COc1ccc(C(=S)N2CCN(c3ccccc3)CC2)cc1`, the T/C under setting [1] is 95 % of control, the T/C under setting [2] was 100 % of control and the T/C under setting [3] is 95 % of control.

As to `CC(C)CC(NC(=O)CN(Cc1ccccc1)S(C)(=O)=O)C(=O)O` (stereo unspecified) (Ms-[Nphe]-[ξL]-OH), the T/C runs as follows: (dose: 6.25 mg/kg/injection, schedule: Q04DX003 (ip), vehicle: other) 110 % of control; (dose: 12.5 mg/kg/injection, schedule: Q04DX003 (ip), vehicle: other) 97 % of control; (dose: 25.0 mg/kg/injection, schedule: Q04DX003 (ip), vehicle: other) 113 % of control; under setting [4], 151 % of control; (dose: 50.0 mg/kg/injection, schedule: Q04DX003 (ip), vehicle: other) 95 % of control and 98 % of control; (dose: 100.0 mg/kg/injection, schedule: Q04DX003 (ip), vehicle: other) 100 % of control and 103 % of control. The T/C reads like this: under setting [5], 89 % of control; (dose: 200.0 mg/kg/injection, schedule: Q04DX003 (ip), vehicle: other) 98 % of control and 106 % of control; (dose: 400.0 mg/kg/injection, schedule: Q04DX003 (ip), vehicle: other) 106 % of control.

Regarding `O=c1c(Br)cccc(CN2CCOCC2)c1O`, the T/C was 101 % of control (dose: 12.5 mg/kg/injection, schedule: Q04DX002 (ip), vehicle: saline with Tween-80); 96 % of control (dose: 25.0 mg/kg/injection, schedule: Q04DX002 (ip), vehicle: saline with Tween-80); 101 % of control and 106 % of control (dose: 50.0 mg/kg/injection, schedule: Q04DX002 (ip), vehicle: saline with Tween-80).

`CC1=C(C(=O)OCc2ccccc2)C(c2ccc(Cl)cc2)C(C(=O)OCc2ccccc2)=C(C)N1`: the T/C by setting is: (dose: 12.5 mg/kg/injection, schedule: Q01DX009 (ip), vehicle: other) 100 % of control; (dose: 25.0 mg/kg/injection, schedule: Q01DX009 (ip), vehicle: other) 94 % of control; under setting [4], 90 % of control; (dose: 100.0 mg/kg/injection, schedule: Q01DX009 (ip), vehicle: other) 89 % of control; under setting [5], 90 % of control.

For `CCN(CC)c1cccc(N)c1`, the T/C (dose: 50.0 mg/kg/injection, schedule: Q01DX009 (sc), vehicle: olive oil, sesame oil, peanut oil) was 104 % of control; the T/C (dose: 50.0 mg/kg/injection, schedule: Q04DX003 (sc), vehicle: olive oil, sesame oil, peanut oil) was 100 % of control; the T/C (dose: 100.0 mg/kg/injection, schedule: Q01DX009 (sc), vehicle: olive oil, sesame oil, peanut oil) was 87 % of control; the T/C (dose: 100.0 mg/kg/injection, schedule: Q04DX003 (sc), vehicle: olive oil, sesame oil, peanut oil) was 104 % of control; the T/C (dose: 200.0 mg/kg/injection, schedule: Q04DX003 (sc), vehicle: olive oil, sesame oil, peanut oil) was 100 % of control.

In the case of `CC(=O)CC(C)=O.CC(=O)CC(C)=O.[NH-]C1CCCCC1.[NH-]C1CCCCC1.[Ni+2]`, the T/C (dose: 19.0 mg/kg/injection, schedule: Q04DX003 (ip), vehicle: saline with Tween-80) is 104 % of control; the T/C (dose: 20.0 mg/kg/injection, schedule: Q04DX003 (ip), vehicle: saline) was 100 % of control; the T/C (dose: 37.5 mg/kg/injection, schedule: Q04DX003 (ip), vehicle: saline with Tween-80) is 118 % of control; the T/C (dose: 40.0 mg/kg/injection, schedule: Q04DX003 (ip), vehicle: saline) was 112 % of control.

As to `CC1CC/C(=N\N(C)C)c2ccccc21` (stereo unspecified), the T/C (dose: 67.0 mg/kg/injection, schedule: Q04DX003 (ip), vehicle: saline with Tween-80) was 118 % of control; the T/C (dose: 100.0 mg/kg/injection, schedule: Q04DX003 (ip), vehicle: saline with Tween-80) is 122 % of control; the T/C (dose: 400.0 mg/kg/injection, schedule: Q04DX003 (ip), vehicle: saline with Tween-80) was 120 % of control.
